Where two headings read alike, the source gives them in different places.
Assays:
[1] = Fluorescence quantum yield determination; assay type: physicochemical; conditions: in buffer
Method: There is a shift of 6 nm in the absorbance maxima of the fluorophore between IDCC-NDPK and IDCC-NDPK˜P, but only 2 nm in the emission maxima. The fluorescence quantum yields for the two forms of the labelled enzyme were determined using as reference the known value of 0.83 for Coumarin 314 in ethanol.

[2] = in ethanol, known value; cited from earlier work
human rho protein = assay: Nucleotide exchange and GTP hydrolysis of rho measured with IDCC-NDPK˜P fluorescence; assay type: biochemical; conditions: 2 μM Rho.GDP, 10 μM GTP, 30° C., pH 7.6
Method: The rate of nucleotide exchange from a small G protein, rho (which also has GTPase activity), was determined in solution. The rate of hydrolysis was also obtained indirectly.
Human rho protein was prepared in a form containing tightly-bound GDP. In the presence of excess added GTP, nucleotide exchange occurs such that GDP is released into free solution where it can be measured according to the invention. Once GTP is bound to rho, its hydrolysis is slowly catalysed by the protein at a steady-state rate. This creates more GDP, which is measured once it is released.
Fluorescence emission was recorded for a 200 μl solution containing 20 mM Tris/HCl, pH 7.6, 1 mM MgCl2, 100 mM (NH4)2SO4, 10 μM GTP, and 2 μM IDCC-NDPK˜P. The reaction was started at t=0 by adding 2 μM Rho.GDP. Excitation was at 440 nm with the emission monochromator set to 475 nm. The temperature was 30° C. The data were normalised using the fluorescence change for 1 μM GDP obtained from a titration of IDCC-NDPK˜P with different GTP/GDP ratios. […] The exponential “burst” represents the exchange of GDP bound to rho for GTP. The linear phase represents steady state: exchange of further GTP onto rho is limited by hydrolysis to GDP.

fluorescence quantum yield [1] | Compound | fluorescence quantum yield [2] | rate constant of exponential phase (exchange of bound GDP for GTP) (human rho protein) [min⁻¹] | slope of linear phase (steady state GTP hydrolysis) (human rho protein) [nM GDP min^−1]
0.52 | CCOC(=O)c1cc2cc3c4c(c2oc1=O)CCCN4CCC3 [Coumarin 314] | 0.83 | – | –
– | Rho.GDP: human rho protein, a small G protein with GTPase activity, prepared with tightly-bound GDP | – | 0.196 | 41.2

From patent US7297506B2, “Assay for nucleotide triphosphate using a modified nucleoside diphosphate kinase comprising a fluorescent label” (Medical Research Council, priority 1999, dated 2007)
